From patent publication US20050112573A1, “Method of detecting toxic substance” (priority 2001, published 2005)

System: yeast genes (level of expressed mRNA)
Test: DNA chip analysis of expressed mRNA of yeast genes after 2 h culture with a toxic chemical substance
Format: cell-based, Saccharomyces cerevisiae S288C
Conditions: for The level of expressed mRNA in the presence of chemical substance/ (ratio to absence of chemical substance): stress protein genes, DNA chip
Method: Yeast (Saccharomyces cerevtisiae S288C (α SUC2mal mel gap2 CUP1)) were cultured at 25° C. on YPD medium (yeast extract 1%, polypepton 2%, glucose 2%). One of toxic chemical substances was added to the cell at logarithmic growth phase, and the cell was further cultured for two hours. Cell was cultured without any chemical substance in the same condition, and was used as control. Concentrations of the chemical substances were defined to inhibit the growth of the yeast but not lead to death.
After the completion of cultivation, the culture was centrifuged to collect the cells. To the cells, sodium acetate buffer (50 mM sodium acetate, 10 mM EDTA, 1% SDS) was added, and the mixture was shaken at 65° C. for five minutes, followed by returning to room temperature, and obtaining the supernatant, which procedure was repeated two times. To the supernatant, ½ amount of a solution of phenol/chloroform was added, and the mixture was centrifuged to give a supernatant, which was added with an equal amount of chloroform, and the mixture was centrifuged to give a supernatant. To the supernatant, an equal amount of isopropanol containing 0.3 M sodium acetate was added, and the mixture was allowed to stand at room temperature for 30 minutes, after which the mixture was centrifuged to give a sediment of the whole RNAs. Seventy % ethanol was added to the sediment, and the mixture was again centrifuged to give a sediment, which was then dried and dissolved in water. mRNA was isolated from the whole RNAs as followings. In view of the fact that a poly A chain is attached to the 3′ terminus of mRNA, a polynucleotide having a poly T structure which was immobilized on the surface of latex beads was used to trap the mRNA, and then the mRNA was washed and eluted with spine column (Oligotex-dT30<Super>mRNA Purification Kit, Takara). Reverse transcription of the mRNA was conducted with a reverse transcriptase (Super Script II Reverse Transcriptase; catalogue No. 18064-014, GibcoBRL) using fluorescence-labeled nucleotides to give cDNAs that were introduced with Cy3-dUTP or Cy5-dUTP during the reverse transcription.
The labeled cDNAs were dissolved in TE buffer (10 mM Tris-HCl/1 mM EDTA, pH8.0), and the solution was dropped on the DNA chip containing the whole genes of yeast (DNA Chip Research Inc. Japan) so that the cDNAs were hybridized on the DNA chip at 65° C. for over 12 hours. The fluoresces intensity of the DNA chip was read with a scanner, and the ratio relative to the fluorescence intensity resulting from the absence of chemical substance was estimated as the following, which is shown in Tables 1 to 9: [formula]
In the Tables, “Intensity” indicated in the rightmost column is a value of the level of expressed mRNA of each gene in control cells as divided by the average level of the expressions of the whole genes.

CCCCC[C@H](O)CC(=O)CCc1ccc(O)c(OC)c1 [(13), gingerol]
The level of expressed mRNA in the presence of chemical substance/ in its absence, gene YDL078C (yeast gene YDL078C, ratio of DNA chip fluorescence intensity to that without chemical substance): 1.0 | The level of expressed mRNA in the presence of chemical substance/ (in its absence), gene YDL215C (yeast gene YDL215C, ratio of DNA chip fluorescence intensity to that without chemical substance): 1.5 | The level of expressed mRNA in the presence of chemical substance/The level of expressed mRNA in the absence of chemical substance (yeast gene YDL238C): 2.0 | The level of expressed mRNA in the presence of chemical substance/The level of expressed mRNA in the absence of chemical substance (yeast gene YDR055W): 3.1 | The level of expressed mRNA in the presence of chemical substance/ (in its absence), gene YDR073W (yeast gene YDR073W, ratio of DNA chip fluorescence intensity to that without chemical substance): 0.6 | The level of expressed mRNA in the presence of chemical substance/ in its absence, gene YDR079W (yeast gene YDR079W, energy system protein genes, 2 h culture with the chemical, ratio to control without chemical): 1.3 | The level of expressed mRNA in the presence of chemical substance/ (ratio to absence), gene YDR079W (yeast gene YDR079W, mitochondria-located protein genes, 2 h culture with chemical): 1.3 | The level of expressed mRNA in the presence of chemical substance/The level of expressed mRNA in the absence of chemical substance (yeast gene YDR084C): 1.0 | The level of expressed mRNA in the presence of chemical substance/The level of expressed mRNA in the absence of chemical substance (yeast gene YDR085C): 1.1 | The level of expressed mRNA in the presence of chemical substance/The level of expressed mRNA in the absence of chemical substance (yeast gene YDR104C): 1.6 | The level of expressed mRNA in the presence of chemical substance/The level of expressed mRNA in the absence of chemical substance (yeast gene YDR115W): 1.1 | The level of expressed mRNA in the presence of chemical substance/The level of expressed mRNA in the absence of chemical substance (yeast gene YDR259C): 2.0 | The level of expressed mRNA in the presence of chemical substance/ (in its absence), gene YDR297W (yeast gene YDR297W, ratio of DNA chip fluorescence intensity to that without chemical substance): 0.8 | The level of expressed mRNA in the presence of chemical substance/The level of expressed mRNA in the absence of chemical substance (yeast gene YDR315C): 1.6 | The level of expressed mRNA in the presence of chemical substance/The level of expressed mRNA in the absence of chemical substance (yeast gene YDR358W): 3.2 | The level of expressed mRNA in the presence of chemical substance/ (ratio to absence), gene YDR377W (yeast gene YDR377W, mitochondria-located protein genes, 2 h culture with chemical): 0.7 | The level of expressed mRNA in the presence of chemical substance/ (in its absence), gene YDR387C (yeast gene YDR387C, ratio of DNA chip fluorescence intensity to that without chemical substance): 1.3 | The level of expressed mRNA in the presence of chemical substance/The level of expressed mRNA in the absence of chemical substance (yeast gene YDR388W): 1.7 | The level of expressed mRNA in the presence of chemical substance/The level of expressed mRNA in the absence of chemical substance (yeast gene YDR432W): 1.4 | The level of expressed mRNA in the presence of chemical substance/The level of expressed mRNA in the absence of chemical substance (yeast gene YDR481C): 1.5 | The level of expressed mRNA in the presence of chemical substance/The level of expressed mRNA in the absence of chemical substance (yeast gene YDR510W): 2.0 | The level of expressed mRNA in the presence of chemical substance/ (ratio to absence of chemical substance) (yeast gene YEL039C): 0.5 | The level of expressed mRNA in the presence of chemical substance/The level of expressed mRNA in the absence of chemical substance (yeast gene YEL042W): 0.4 | The level of expressed mRNA in the presence of chemical substance/The level of expressed mRNA in the absence of chemical substance (yeast gene YEL066W): 1.6 | The level of expressed mRNA in the presence of chemical substance/ (in its absence), gene YER015W (yeast gene YER015W, ratio of DNA chip fluorescence intensity to that without chemical substance): 0.8 | The level of expressed mRNA in the presence of chemical substance/The level of expressed mRNA in the absence of chemical substance (yeast gene YER039C): 2.1 | The level of expressed mRNA in the presence of chemical substance/ (ratio to absence of chemical substance) (yeast gene YER057C): 1.0 | The level of expressed mRNA in the presence of chemical substance/The level of expressed mRNA in the absence of chemical substance (yeast gene YER107C): 0.9 | The level of expressed mRNA in the presence of chemical substance/The level of expressed mRNA in the absence of chemical substance (yeast gene YER130C): 1.6 | The level of expressed mRNA in the presence of chemical substance/The level of expressed mRNA in the absence of chemical substance (yeast gene YFL028C): 1.4 | The level of expressed mRNA in the presence of chemical substance/The level of expressed mRNA in the absence of chemical substance (yeast gene YFL043C): 1.5 | The level of expressed mRNA in the presence of chemical substance/ (in its absence), gene YGL035C (yeast gene YGL035C, ratio of DNA chip fluorescence intensity to that without chemical substance): 1.1 | The level of expressed mRNA in the presence of chemical substance/ (in its absence), gene YGL115W (yeast gene YGL115W, ratio of DNA chip fluorescence intensity to that without chemical substance): 0.7 | The level of expressed mRNA in the presence of chemical substance/ (ratio to absence of chemical substance) (yeast gene YGL115W): 0.7 | The level of expressed mRNA in the presence of chemical substance/The level of expressed mRNA in the absence of chemical substance (yeast gene YGL158W): 1.0 | The level of expressed mRNA in the presence of chemical substance/ (ratio to absence), gene YGL187C (yeast gene YGL187C, mitochondria-located protein genes, 2 h culture with chemical): 0.7 | The level of expressed mRNA in the presence of chemical substance/ (in its absence), gene YGL205W (yeast gene YGL205W, ratio of DNA chip fluorescence intensity to that without chemical substance): 1.0 | The level of expressed mRNA in the presence of chemical substance/The level of expressed mRNA in the absence of chemical substance (yeast gene YGL229C): 1.7 | The level of expressed mRNA in the presence of chemical substance/ in its absence, gene YGR062C (yeast gene YGR062C, energy system protein genes, 2 h culture with the chemical, ratio to control without chemical): 1.5 | The level of expressed mRNA in the presence of chemical substance/ (ratio to absence), gene YGR062C (yeast gene YGR062C, mitochondria-located protein genes, 2 h culture with chemical): 1.5 | The level of expressed mRNA in the presence of chemical substance/ (in its absence), gene YGR096W (yeast gene YGR096W, ratio of DNA chip fluorescence intensity to that without chemical substance): 1.1 | The level of expressed mRNA in the presence of chemical substance/The level of expressed mRNA in the absence of chemical substance (yeast gene YGR136W): 1.7 | The level of expressed mRNA in the presence of chemical substance/The level of expressed mRNA in the absence of chemical substance (yeast gene YGR189C): 1.2 | The level of expressed mRNA in the presence of chemical substance/The level of expressed mRNA in the absence of chemical substance (yeast gene YGR213C): 30.4 | The level of expressed mRNA in the presence of chemical substance/The level of expressed mRNA in the absence of chemical substance (yeast gene YGR257C): 2.0 | The level of expressed mRNA in the presence of chemical substance/ (in its absence), gene YGR287C (yeast gene YGR287C, ratio of DNA chip fluorescence intensity to that without chemical substance): 1.7 | The level of expressed mRNA in the presence of chemical substance/ (in its absence), gene YGR288W (yeast gene YGR288W, ratio of DNA chip fluorescence intensity to that without chemical substance): 1.3 | The level of expressed mRNA in the presence of chemical substance/ (ratio to absence of chemical substance) (yeast gene YHL028W): 2.1 | The level of expressed mRNA in the presence of chemical substance/ (ratio to absence of chemical substance) (yeast gene YHL046C): 1.4 | The level of expressed mRNA in the presence of chemical substance/The level of expressed mRNA in the absence of chemical substance (yeast gene YHR004C): 1.1 | The level of expressed mRNA in the presence of chemical substance/The level of expressed mRNA in the absence of chemical substance (yeast gene YHR071W): 2.3 | The level of expressed mRNA in the presence of chemical substance/The level of expressed mRNA in the absence of chemical substance (yeast gene YHR139C): 7.0 | The level of expressed mRNA in the presence of chemical substance/The level of expressed mRNA in the absence of chemical substance (yeast gene YHR142W): 1.2 | The level of expressed mRNA in the presence of chemical substance/ (in its absence), gene YHR210C (yeast gene YHR210C, ratio of DNA chip fluorescence intensity to that without chemical substance): 0.4 | The level of expressed mRNA in the presence of chemical substance/ (in its absence), gene YIL006W (yeast gene YIL006W, ratio of DNA chip fluorescence intensity to that without chemical substance): 0.8 | The level of expressed mRNA in the presence of chemical substance/ (ratio to absence of chemical substance) (yeast gene YIL011W): 0.5 | The level of expressed mRNA in the presence of chemical substance/The level of expressed mRNA in the absence of chemical substance (yeast gene YIL123W): 0.4
